# Article PMC12250302, “Synthesis, Antimicrobial Activities, and Model of Action of Novel Tetralone Derivatives Containing Aminoguanidinium Moiety” (International Journal of Molecular Sciences, 2025)
# Like-named read-outs stand apart in the source and are kept apart here.
# Legend:
# P. aeruginosa ATCC 27853 = assay: MIC and MBC testing, broth microdilution; type: cell-based, Pseudomonas aeruginosa; conditions: for MBC: ATCC27853, read-out: MBC
# How it was run: (§1)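 Broth microdilution in MH broth, 2-fold compound series from DMSO stocks; inoculum from log-phase culture diluted to 1 × 10^6 CFU/mL prior to addition; 37 °C, 18 h.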
# [1] = tested on: K. pneumoniae ATCC 700603; assay: MIC and MBC testing, broth microdilution; type: cell-based, Klebsiella pneumoniae
# How it was run: as §1
# S. aureus ATCC 29213 = assay: MIC and MBC testing, broth microdilution; type: cell-based, Staphylococcus aureus; conditions: S. aureus ATCC 29213; for MIC: 18 h
# How it was run: as §1
# [2] = tested on: S. aureus, including MRSA; assay: MIC testing, summary over S. aureus strains; type: cell-based; conditions: Staphylococcus aureus
# Description: (§2) The minimum inhibitory concentration (MIC) of all synthesized compounds was tested by the broth microdilution method. In brief, compounds dissolved in DMSO were diluted twice continuously in a 96-well plate with MH broth. The ESKAPE pathogens (E. coli ATCC 25922, S. aureus ATCC 29213, K. pneumoniae ATCC 700603, A. baumannii ATCC 19606, P. aeruginosa ATCC 27853, and E. faecium ATCC 35667), clinical S. aureus isolates (LMY45, LMY46, LMY47, and LMY48) and methicillin-resistant Staphylococcus aureus (MRSA-1 and MRSA-2) were cultured in MH broth to logarithmic growth phase and then diluted to 1 × 10^6 CFU/mL in MH broth. Subsequently, the diluted bacterial solution was mixed with the diluted compound solution in a 96-well plate and incubated at 37 °C for a duration of 18 h. The MIC of the compounds was recorded as the lowest concentration at which no visible growth was observed. […] Each concentration was replicated thrice.
# A. baumannii ATCC 19606 = assay: MIC and MBC testing, broth microdilution; type: cell-based, Acinetobacter baumannii
# How it was run: as §1
# MRSA-2 = assay: MIC and MBC testing, broth microdilution; type: cell-based, Staphylococcus aureus; conditions: MRSA-2; for MIC: 18 h
# How it was run: (§3)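 Strains grown to logarithmic phase were diluted to 1 × 10^6 CFU/mL, combined with compound two-fold dilution series in MH broth, and incubated at 37 °C for 18 h. MIC and MBC were then recorded, with triplicate wells per concentration.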
# [3] = tested on: clinical S. aureus isolate LMY48; assay: MIC and MBC testing, broth microdilution; type: cell-based, Staphylococcus aureus; conditions: LMY48; for MIC: 18 h
# How it was run: (§4)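 Compounds in DMSO were serially two-fold diluted in MH broth and mixed with log-phase bacteria diluted to 1 × 10^6 CFU/mL in MH broth, then incubated 18 h at 37 °C. MBC values were also determined. Each concentration was tested in triplicate.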
# [4] = tested on: clinical S. aureus isolate LMY47; assay: MIC and MBC testing, broth microdilution; type: cell-based, Staphylococcus aureus; conditions: LMY47; for MIC: 18 h
# How it was run: as §3
# [5] = tested on: clinical S. aureus isolate LMY46; assay: MIC and MBC testing, broth microdilution; type: cell-based, Staphylococcus aureus; conditions: LMY46; for MIC: 18 h
# How it was run: as §4
# MRSA-1 = assay: MIC and MBC testing, broth microdilution; type: cell-based, Staphylococcus aureus; conditions: MRSA-1; for MIC: 18 h
# How it was run: as §4
# [6] = tested on: clinical S. aureus isolate LMY45; assay: MIC and MBC testing, broth microdilution; type: cell-based, Staphylococcus aureus; conditions: LMY45; for MIC: 18 h
# How it was run: as §4
# MRSA = assay: MIC testing, summary over MRSA strains; type: cell-based; conditions: Staphylococcus aureus; against MRSA
# Description: as §2
# E. coli ATCC 25922 = assay: MIC and MBC testing, broth microdilution; type: cell-based, Escherichia coli
# How it was run: as §1
# E. faecium ATCC 35667 = assay: MIC and MBC testing, broth microdilution; type: cell-based, Enterococcus faecium; conditions: E. faecium ATCC 35667; for MIC: 18 h
# How it was run: as §1
# [7] = Pseudomonas aeruginosa, ATCC27853, 18 h, read-out: MIC
# [8] = Klebsiella pneumoniae, ATCC700603, 18 h, read-out: MIC
# [9] = Klebsiella pneumoniae, ATCC700603, read-out: MBC
# [10] = Staphylococcus aureus, ATCC29213, read-out: MIC
# [11] = Staphylococcus aureus, ATCC29213, read-out: MBC
# [12] = Acinetobacter baumannii, ATCC19606, 18 h, read-out: MIC
# [13] = Acinetobacter baumannii, ATCC19606, read-out: MBC
# [14] = Staphylococcus aureus, read-out: MIC
# [15] = Staphylococcus aureus, read-out: MBC
# [16] = Escherichia coli, ATCC25922, 18 h, read-out: MIC
# [17] = Escherichia coli, ATCC25922, read-out: MBC
# [18] = Enterococcus faecium, ATCC35667, read-out: MIC
# [19] = Enterococcus faecium, ATCC35667, read-out: MBC
molecule,measurement,setting,value
"[H]/N=C(\N)NN=C1CCCc2cc(OCc3ccc(F)c(Cl)c3)ccc21 [Compound 1U, (E)-2-(6-((3-chloro-4-fluorobenzyl)oxy)-3,4-dihydronaphthalen-1(2H)-ylidene)hydrazine-1-carboximidamide]",MIC,P. aeruginosa ATCC 27853; [7],16 µg/mL
same,MBC,P. aeruginosa ATCC 27853; Pseudomonas aeruginosa,> 32 µg/mL
same,MIC,[1]; [8],8 µg/mL
same,MBC,[1]; [9],32 µg/mL
same,MIC,S. aureus ATCC 29213; [10],2 µg/mL
same,MBC,S. aureus ATCC 29213; [11],4 µg/mL
same,MIC,[2],0.5 to 4 µg/mL
same,MIC,A. baumannii ATCC 19606; [12],4 µg/mL
same,MBC,A. baumannii ATCC 19606; [13],16 µg/mL
same,MIC,MRSA-2; [14],1 µg/mL
same,MBC,MRSA-2; [15],4 µg/mL
same,MIC,[3]; [14],4 µg/mL
same,MBC,[3]; [15],8 µg/mL
same,MIC,[4]; [14],2 µg/mL
same,MBC,[4]; [15],4 µg/mL
same,MIC,[5]; [14],1 µg/mL
same,MBC,[5]; [15],4 µg/mL
same,MIC,MRSA-1; [14],2 µg/mL
same,MBC,MRSA-1; [15],32 µg/mL
same,MIC,[6]; [14],2 µg/mL
same,MBC,[6]; [15],2 µg/mL
same,MIC,MRSA,1 to 2 µg/mL
same,MIC,E. coli ATCC 25922; [16],4 µg/mL
same,MBC,E. coli ATCC 25922; [17],16 µg/mL
same,MIC,E. faecium ATCC 35667; [18],2 µg/mL
same,MBC,E. faecium ATCC 35667; [19],16 µg/mL
"(E)-2-(6-((3,4-dichlorobenzyl)oxy)-3,4-dihydro-1(2H)-naphthalenylidene)hydrazine-1-carboxamide [Compound 1P]",MIC,P. aeruginosa ATCC 27853; 18 h,>32/- µg/mL
same,MBC,[1],32 µg/mL
same,MIC,[1]; 18 h,32 µg/mL
same,MBC,S. aureus ATCC 29213,8 µg/mL
same,MIC,S. aureus ATCC 29213,2 µg/mL
same,MBC,A. baumannii ATCC 19606,16 µg/mL
same,MIC,A. baumannii ATCC 19606; 18 h,8 µg/mL
same,MBC,MRSA-2,4 µg/mL
same,MIC,MRSA-2,2 µg/mL
same,MBC,[3],≤ 1 µg/mL
same,MIC,[3],≤ 1 µg/mL
same,MBC,[4],4 µg/mL
same,MIC,[4],2 µg/mL
same,MBC,[5],8 µg/mL
same,MIC,[5],2 µg/mL
same,MBC,MRSA-1,16 µg/mL
same,MIC,MRSA-1,1 µg/mL
same,MBC,[6],4 µg/mL
same,MIC,[6],2 µg/mL
same,MBC,E. coli ATCC 25922,16 µg/mL
same,MIC,E. coli ATCC 25922; 18 h,8 µg/mL
same,MBC,E. faecium ATCC 35667,8 µg/mL
same,MIC,E. faecium ATCC 35667,2 µg/mL
"[H]/N=C(\N)NN=C1CCCc2cc(OCc3cc(C(F)(F)F)cc(C(F)(F)F)c3)ccc21 [Compound 1K, (E)-2-(6-((3,5-bis(trifluoromethyl)benzyl)oxy)-3,4-dihydronaphthalen-1(2H)-ylidene)hydrazine-1-carboximidamide]",MIC,P. aeruginosa ATCC 27853; [7],> 32 µg/mL
same,MIC,[1]; [8],> 32 µg/mL
same,MIC,S. aureus ATCC 29213; [10],32 µg/mL
same,MIC,A. baumannii ATCC 19606; [12],> 32 µg/mL
same,MIC,MRSA-2; [14],8 µg/mL
same,MBC,MRSA-2; [15],32 µg/mL
same,MIC,[3]; [14],4 µg/mL
same,MBC,[3]; [15],8 µg/mL
same,MIC,[4]; [14],4 µg/mL
same,MBC,[4]; [15],8 µg/mL
same,MIC,[5]; [14],4 µg/mL
same,MBC,[5]; [15],> 32 µg/mL
same,MIC,MRSA-1; [14],16 µg/mL
same,MIC,[6]; [14],4 µg/mL
same,MBC,[6]; [15],16 µg/mL
same,MIC,E. coli ATCC 25922; [16],> 32 µg/mL
same,MIC,E. faecium ATCC 35667; [18],4 µg/mL
same,MBC,E. faecium ATCC 35667; [19],16 µg/mL
"[H]/N=C(\N)NN=C1CCCc2cc(OCCCCCCCCCC)ccc21 [Compound 2G, (E)-2-(6-(decyloxy)-3,4-dihydronaphthalen-1(2H)-ylidene)hydrazine-1-carboximidamide]",MIC,P. aeruginosa ATCC 27853; [7],> 32 µg/mL
same,MIC,[1]; [8],> 32 µg/mL
same,MIC,S. aureus ATCC 29213; [10],2 µg/mL
same,MBC,S. aureus ATCC 29213; [11],8 µg/mL
same,MIC,A. baumannii ATCC 19606; [12],> 32 µg/mL
same,MIC,MRSA-2; [14],4 µg/mL
same,MBC,MRSA-2; [15],4 µg/mL
same,MIC,[3]; [14],2 µg/mL
same,MBC,[3]; [15],4 µg/mL
same,MIC,[4]; [14],2 µg/mL
same,MBC,[4]; [15],2 µg/mL
same,MIC,[5]; [14],4 µg/mL
same,MBC,[5]; [15],8 µg/mL
same,MIC,MRSA-1; [14],4 µg/mL
same,MBC,MRSA-1; [15],16 µg/mL
same,MIC,[6]; [14],4 µg/mL
same,MBC,[6]; [15],16 µg/mL
same,MIC,E. coli ATCC 25922; [16],> 32 µg/mL
same,MIC,E. faecium ATCC 35667; [18],2 µg/mL
same,MBC,E. faecium ATCC 35667; [19],8 µg/mL
"[H]/N=C(\N)NN=C1CCCc2cc(OCCCCC)ccc21 [Compound 2B, (E)-2-(6-(pentyloxy)-3,4-dihydronaphthalen-1(2H)-ylidene)hydrazine-1-carboximidamide]",MIC,P. aeruginosa ATCC 27853; [7],16 µg/mL
same,MBC,P. aeruginosa ATCC 27853; Pseudomonas aeruginosa,32 µg/mL
same,MIC,[1]; [8],8 µg/mL
same,MBC,[1]; [9],8 µg/mL
same,MIC,S. aureus ATCC 29213; [10],1 µg/mL
same,MBC,S. aureus ATCC 29213; [11],8 µg/mL
same,MIC,A. baumannii ATCC 19606; [12],8 µg/mL
same,MBC,A. baumannii ATCC 19606; [13],8 µg/mL
same,MIC,MRSA-2; [14],4 µg/mL
same,MBC,MRSA-2; [15],4 µg/mL
same,MIC,[3]; [14],2 µg/mL
same,MBC,[3]; [15],2 µg/mL
same,MIC,[4]; [14],4 µg/mL
same,MBC,[4]; [15],8 µg/mL
same,MIC,[5]; [14],8 µg/mL
same,MBC,[5]; [15],16 µg/mL
same,MIC,MRSA-1; [14],32 µg/mL
same,MBC,MRSA-1; [15],32 µg/mL
same,MIC,[6]; [14],8 µg/mL
same,MBC,[6]; [15],16 µg/mL
same,MIC,E. coli ATCC 25922; [16],4 µg/mL
same,MBC,E. coli ATCC 25922; [17],8 µg/mL
same,MIC,E. faecium ATCC 35667; [18],4 µg/mL
same,MBC,E. faecium ATCC 35667; [19],16 µg/mL
"[H]/N=C(\N)NN=C1CCCc2cc(OCc3cccc(F)c3)ccc21 [Compound 1B, (E)-2-(6-((3-fluorobenzyl)oxy)-3,4-dihydronaphthalen-1(2H)-ylidene)hydrazine-1-carboximidamide]",MIC,P. aeruginosa ATCC 27853; [7],32 µg/mL
same,MBC,P. aeruginosa ATCC 27853; Pseudomonas aeruginosa,32 µg/mL
same,MIC,[1]; [8],16 µg/mL
same,MBC,[1]; [9],16 µg/mL
same,MIC,S. aureus ATCC 29213; [10],4 µg/mL
same,MBC,S. aureus ATCC 29213; [11],16 µg/mL
same,MIC,A. baumannii ATCC 19606; [12],8 µg/mL
same,MBC,A. baumannii ATCC 19606; [13],16 µg/mL
same,MIC,MRSA-2; [14],2 µg/mL
same,MBC,MRSA-2; [15],8 µg/mL
same,MIC,[3]; [14],4 µg/mL
same,MBC,[3]; [15],4 µg/mL
same,MIC,[4]; [14],2 µg/mL
same,MBC,[4]; [15],8 µg/mL
same,MIC,[5]; [14],2 µg/mL
same,MBC,[5]; [15],16 µg/mL
same,MIC,MRSA-1; [14],2 µg/mL
same,MBC,MRSA-1; [15],8 µg/mL
same,MIC,[6]; [14],2 µg/mL
same,MBC,[6]; [15],4 µg/mL
same,MIC,E. coli ATCC 25922; [16],8 µg/mL
same,MBC,E. coli ATCC 25922; [17],8 µg/mL
same,MIC,E. faecium ATCC 35667; [18],4 µg/mL
same,MBC,E. faecium ATCC 35667; [19],16 µg/mL
